From publication PMC9763021, “Comprehensive Assessment of Biomolecular Interactions of Morpholine-Based Mixed Ligand Cu(II) and Zn(II) Complexes of 2,2′-Bipyridine as Potential Anticancer and SARS-CoV-2 Agents: A Synergistic Experimental and Structure-Based Virtual Screening” (Bioinorganic Chemistry and Applications, 2022) come the findings set out here.

The test system of assay [1] is NHDF normal human dermal fibroblasts cell line. Nature of the assay: MTT cell viability assay, NHDF. The format is cell-based. Particulars: 72 hours exposure, normal cells. The method, then:
(§1) All substances towards the A549, HepG2, MCF-7, and NHDF cell lines were evaluated by using the MTT approach. The collected data were utilized to compute the IC50 value and contrast it with the gold standard cisplatin anticancer medication.
(§2) Cellular viability or metabolic properties can be measured using the MTT assay, which is a powerful and credible method for anticancer properties. The anticancer efficacy of all test compounds was investigated by the MTT assay against A549, HepG2, MCF-7, and NHDF cell lines. As per the colorimetric approach, the IC50 findings of all test substances were evaluated as the % of cell viability/growth inhibition. […] Nevertheless, complex (1a) has the highest cytotoxic potential among others. The acquired findings were in the subsequent sequence as follows: (cisplatin) > (1a) > (2a) > (HL) (Figure 16 and Table 10). The cytotoxic effectiveness is dependent upon the DNA-binding modalities, the structure-activity relationship, as well as drug concentrations and incubation period exposure. […] As per Tweedy's chelation theory, charge equilibration happens as a result of coordination between the ligands and metal ions, which minimises the polarity of the metal ions and causes the capability of the test complexes to pass via the cell membrane lipid layer. Thus, it put off the synthesis of cell wall/protein/nucleic acids. Additionally, the results of DNA-binding tests using these complexes, including gel electrophoresis, UV-visible spectral titration, hydrodynamic, emission, and CV findings, were in good agreement with the findings of cytotoxicity. The expressions (46) and (47) were supported to measure the % of growth inhibition and cell viability. […]
(§3) A549, HepG2 MCF-7, and NHDF are represented as human lung cancer cell line, liver cancer cell line, breast cancer cell line, and normal human dermal fibroblasts cell line.(45) % Cytotoxiciy=1− Mean absorbance of Sample at 595 nm/Mean absorbance of Controlat 595 nm ×100, (46) Cellviability%=100−Cytotoxiciy%.

The subject of assay [2] is A549 human lung cancer cell line. Put plainly: MTT cell viability assay, A549. The format is cell-based. The method, then: as §1, §2, §3
In assay [3] the test system is MCF-7 breast cancer cell line. Put plainly: MTT cell viability assay, MCF-7. The format is cell-based, human. As to the method: as §1, §2, §3
Assay [4] relates to HepG2 liver cancer cell line. Put plainly: MTT cell viability assay, HepG2. In kind it is cell-based, human. The method, then: as §1, §2, §3

On to `[Cu+2].[O-]c1ccccc1N=Cc1ccc(N2CCOCC2)cc1.[O-]c1ccccc1N=Cc1ccc(N2CCOCC2)cc1.c1ccc(-c2ccccn2)nc1` [(1a), [Cu(L)2(bpy)]], for which the half-inhibitory concentration (IC50) came to 73.6 ± 3.7 µM in assay [1], 30.8 ± 1.5 µM in assay [2] (72 hours exposure), 32.1 ± 1.6 µM in assay [3] (72 hours exposure) and 33.1 ± 1.7 µM in assay [4] (72 hours exposure).

In the case of `Oc1ccccc1N=Cc1ccc(N2CCOCC2)cc1` [(HL), 2-(4-morpholinobenzylideneamino)phenol], the IC50 came out at 209 ± 10.4 µM in assay [1] (Homo sapiens, NHDF); 126 ± 6.3 µM in assay [2] (Homo sapiens, A549, 72 hours exposure); 105 ± 5.3 µM in assay [3] (Homo sapiens, MCF7, 72 hours exposure); 108 ± 5.4 µM in assay [4] (Homo sapiens, HepG2, 72 hours exposure).
